test system: FRT CFTR-F508del YFP iodide quenching, 24 h; test: restoration of mutant CFTR halide transport – FRT cells, YFP quenching, cherry-pick, dose response (AID 743402); details: not given;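 further: compounds act as correctors raising surface CFTR-F508del before acute activation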

Row | SMILES | AC35 [µM]
1 | C[n+]1c2cc(N)ccc2cc2ccc(N)cc21 | 0.19
2 | COC1C(C)OC(OC2CC(C)(O)Cc3cc4c(c(O)c32)C(=O)c2c(O)cc3c(c2C4=O)OC2OC3(C)C(O)C(N(C)C)C2O)C(OC)C1(C)OC (stereo unspecified) | 2.39
3 | CCC1(C)OC(c2ccccc2)=C/C(=C/C=C2C(=O)NC(=O)NC2=O)O1 (stereo unspecified) | 11.7
4 | CC[n+]1c(-c2ccccc2)c2cc(N)ccc2c2ccc(N)cc21 | 13.3
5 | C[C@H]1CCC/C=C/[C@@H]2C[C@H](O)C[C@H]2[C@H](O)/C=C/C(=O)O1 | 15.2
6 | CC1=NCCc2c1[nH]c1cc(O)ccc21 | 13.4
7 | CC1(C)OC(c2ccccc2)=C/C(=C/C=C2C(=O)NC(=O)NC2=O)O1 | 13.4
8 | O=[N+]([O-])c1ccc(N2CCOCC2)c2c1no[n+]2[O-] | 10.4
9 | CC1(C)OC(c2ccccc2)=C/C(=C/C=C2C(=O)NC(=S)NC2=O)O1 | 3.34

same assay, conditions: channel opened with forskolin and a potentiator

Row | SMILES | AC35 [µM]
10 | CCN(CC)c1ccc(/C=C(/C#N)c2nc3ccc(C)cc3[nH]2)c(OC(C)C)c1 | 0.796
11 | CC(C)N1CCc2c(sc(NC(=O)c3ccc([N+](=O)[O-])o3)c2C(N)=O)C1 | 6.42
12 | C[C@H]1CN([C@@H](C)CO)S(=O)(=O)c2ccc(C#Cc3ccc(F)cc3)cc2O[C@H]1CN(C)C(=O)NC1CCCCC1 | 22.6
13 | Cc1ccc(S(=O)(=O)Nc2ccc3c(c2)CC(=O)N([C@@H](C)CO)C[C@@H](C)[C@@H](CN(C)Cc2ccc(Cl)c(Cl)c2)O3)cc1 | 22.6
14 | COc1ccc(S(=O)(=O)N2CC[C@@H]3[C@H](CO)N(C)c4ccc(-c5ccc(F)cc5)cc4[C@@H]32)cc1 | 15.3
15 | CN1C(=CC=C2C=C(I)C(=O)C(I)=C2)C(C)(C)c2ccccc21 | 5.68
16 | CC(=O)OCCn1c2nc(=O)[nH]c(=O)c-2nc2cc(C)c(C)cc21 | 1.37
17 | COc1ccccc1Nc1nc(-c2sc(NC(=O)C(C)(C)C)nc2C)cs1 | 3.51
18 | COc1ccccc1N1CCN(C(=O)c2ccc(-c3ccc(Cl)cc3)o2)CC1 | 7.37
19 | N#C/C(=C\c1ccccn1)c1nc2ccccc2s1 | 3.38
20 | COc1cccc2c1C(=O)c1c(O)c3c(c(O)c1C2=O)C[C@](O)(C(C)=O)C[C@H]3O[C@@H]1C[C@@H](N)[C@@H](O)[C@@H](C)O1 | 1.65
21 | C[n+]1c2cc(N)ccc2cc2ccc(N)cc21 | 0.51
22 | C=C1SC(Nc2c(C)cc(C)cc2C)=NC12CCCCC2 | 3.59
23 | COc1ccc(S(=O)(=O)Nc2ccc3c(c2)C(=O)N([C@@H](C)CO)C[C@@H](C)[C@H](CN(C)Cc2ccc(Oc4ccccc4)cc2)O3)cc1 | 1.52
24 | COc1ccc([C@H]2CC(=O)C=C(c3ccc(OC)cc3OC)C2)cc1 | 25
25 | CNc1ccc2c3c(cccc13)C(=O)N(C)C2=O | 0.651
26 | COC(=O)c1ccccc1-c1c2ccc(=N)cc-2oc2cc(N)ccc12 | 0.0334
27 | COc1ccc(OC)c(Nc2nc(-c3sc(NC(=O)C(C)(C)C)nc3C)cs2)c1 | 0.908
28 | COc1cccc(S(=O)(=O)N2C[C@@H]3N[C@H](C2)C3c2ccc(-c3ccccc3F)cc2)c1 (stereo partly specified) | 24.5
29 | Nc1c2ccccc2nc2ccccc12 | 12.9
30 | CC1(S(=O)(=O)O)CC(=O)c2ccccc2C1=O (stereo unspecified) | 6
31 | COC(=O)Cn1c(=NC(=O)c2cc(-c3cccs3)nc3ccccc23)sc2cc(S(N)(=O)=O)ccc21 | 9.92
32 | O=C1/C(=C\c2cc(Cl)c(O)c(Cl)c2)SC(=S)N1Cc1ccccc1 | 0.214

Row | SMILES | AC35 [µM]
33 | O=C1c2cccc3c(N4CCCCC4)ccc(c23)C(=O)N1c1cccc(O)c1 | 4.44
34 | C[C@H]1CN([C@@H](C)CO)S(=O)(=O)c2ccc(/C=C/c3ccccc3)cc2O[C@H]1CN(C)Cc1ccccc1 | 21.9
35 | O=C1c2cccc3c(O)ccc(c23)C(=O)N1Cc1ccco1 | 2.65
36 | CC(C)n1cc(/C=C/c2cc[n+](C)cc2)c2ccccc21 | 0.752
37 | COc1ccc(-c2cnc3c(NC=O)cc(-c4ccccc4)cn23)cc1OC | 10.4
38 | COc1cc(/C=C2/SC(=S)N(Cc3ccccc3)C2=O)cc(Cl)c1O | 3.7
39 | CN(C)/C=C1\C=C2C(=O)c3ccccc3N2C1=O | 2.19
40 | CN1c2ccc(-c3ccc(F)cc3)cc2[C@H]2[C@H](CCN2S(=O)(=O)c2cccc(F)c2)[C@H]1CO | 15.5
41 | COc1cccc2c1C(=O)c1c(O)c3c(c(O)c1C2=O)CC(O)(C(=O)CO)CC3OC1CC(N(C)C)C(O)C(C)O1 (stereo unspecified) | 1.37
42 | O=C(O)c1ccccc1-c1c2cc(I)c(=O)c(I)c-2oc2c(I)c(O)c(I)cc12 | 1.74
43 | N#C/C(=C/c1ccc(N2CCCCC2)o1)C(=O)Nc1ccc2ccccc2c1 | 2.37
44 | O=[N+]([O-])c1ccc(/C=C/C2=NN(c3ccccc3)C(c3ccco3)C2)o1 (stereo unspecified) | 2.93
45 | CN(C)CCNc1ccc2ncn3c4ccc(O)cc4c(=O)c1c23 | 8.57
46 | CC(C)(C)c1ccc(OCC(=O)Nc2ccc3c4c(cccc24)C(=O)NC3=O)cc1 | 6.68
47 | CC(=NNC(=O)c1ccncc1)c1ccc2ccccc2c1O | 4.3
48 | COc1cccc2c1C(=O)c1c(O)c3c(c(O)c1C2=O)CC(O)(C(C)=O)CC3OC1CC(N(C)C)C(O)C(C)O1 (stereo unspecified) | 1.03
49 | CCN1/C(=C/c2ccc3cc(C)cc(C)c3[n+]2CC)Sc2cc(C)ccc21 | 1.05
50 | C[C@@H]1CN([C@@H](C)CO)C(=O)Cc2cc(NC(=O)Nc3cccc4ccccc34)ccc2O[C@@H]1CN(C)Cc1ccc(Cl)c(Cl)c1 | 22.4
51 | CN1c2ccc(-c3ccc(F)cc3)cc2[C@H]2[C@H](CCN2S(=O)(=O)c2ccc(F)cc2)[C@H]1CO | 21.9
52 | COc1ccc(OC)c(-c2nnc3n2N=C(c2ccc(OC)c(OC)c2)CS3)c1 | 5.34
53 | COc1cc(/C=C2\SC(=Nc3ccc(Cl)c(C(=O)O)c3)NC2=O)c(Br)c(Br)c1O | 2.19
54 | CCN1C(=O)c2cccc3c(N)ccc(c23)C1=O | 2.83
55 | CCN(CC)C1=CC2=CC(=C(C#N)C#N)CCC2CC1 (stereo unspecified) | 0.0855

Row | SMILES | AC35 [µM]
56 | C=CCCC(=O)Nc1nc(C)c(-c2csc(Nc3cc(OC)ccc3OC)n2)s1 | 4.51
57 | COc1ccc(/C=N/NC(=O)c2cccnc2)cc1CSc1ccccn1 | 8.21
58 | CC(C)Nc1nc(Nc2ccc(Cl)cc2F)c2sccc2n1 | 12.7
59 | O=C(C1CCCC1)N1CC(=O)N2[C@H](CO)[C@@H](c3ccc(-c4ccccc4F)cc3)[C@@H]2C1 | 22.2
60 | CCCC(=O)NC1=C(Cl)C(=O)c2ccccc2C1=O | 7.72
61 | CCC1=C(CC2NCCc3ccccc32)CC2c3cc(OC)c(OC)cc3CCN2C1 (stereo unspecified) | 15.4
62 | OC[C@@H]1[C@@H](c2ccccc2)C2(CN(Cc3ccccc3F)C2)N1Cc1ccccc1F | 23.1
63 | COc1cc(OC)cc(C(=O)N[C@H](C(=O)Nc2nc3ccccc3[nH]2)C(C)C)c1 | 9.27
64 | N#CC(C#N)=C1C=C2C=C(N3CCCCCC3)CCC2CC1 (stereo unspecified) | 0.0871
65 | CN1C(=O)c2cccc3c(N)ccc(c23)C1=O | 2.62
66 | Cc1ccnc(N2C(=O)c3cccc4c([N+](=O)[O-])ccc(c34)C2=O)c1 | 7.01
67 | CCOC(=O)C1CCCN(c2ccc([N+](=O)[O-])c3nonc23)C1 (stereo unspecified) | 5.34
68 | CCCC#Cc1ccc([C@H]2[C@H](CO)N3C(=O)CN(C(=O)Nc4cc(F)ccc4F)C[C@@H]23)cc1 | 23.3
69 | O=C1c2cccc3c([N+](=O)[O-])ccc(c23)C(=O)N1Cc1cccnc1 | 9.18
70 | COC(C(=O)C(O)C(C)O)C1Cc2cc3cc(OC4CC(OC5CC(O)C(O)C(C)O5)C(O)C(C)O4)c(C)c(O)c3c(O)c2C(=O)C1OC1CC(OC2CC(OC3CC(O)C(OC)C(C)O3)C(O)C(C)O2)C(O)C(C)O1 (stereo unspecified) | 0.583
71 | CCOc1ccc(C)cc1S(=O)(=O)n1cnc2ccccc21 | 15.9
72 | Cc1cc(C)c(/C=C2\C(=O)Nc3ccccc32)[nH]1 | 3.24
73 | CC(=O)Oc1ccc(N2C(=O)c3cccc4c([N+](=O)[O-])ccc(c34)C2=O)cc1 | 8.38
74 | NS(=O)(=O)c1ccc(NC(=O)c2cccc3cc4ccccc4nc23)cc1 | 20.9
75 | c1ccc2c(c1)C1=NCCN1c1ccccc1-2 | 8.91
76 | CCC(=O)N1CC2(CCN(Cc3ccc(Cl)cc3)CC2)c2c([nH]c3cc(OC)ccc23)[C@H]1CO | 22.2
77 | C=CCN1C(=O)/C(=C/C=C2/N(CC)c3ccc(S(=O)(=O)N(C)C)cc3N2CC)SC1=S | 1.3
78 | COc1ccc(C(=O)NCCN(C)C)c2nc3ccccc3cc12 | 25.7

Row | SMILES | AC35 [µM]
79 | CC1=C/C(=C\C=C(C#N)C#N)N(C)c2ccccc21 | 5.2
80 | CCOC(=O)/C(=C/C=C1\Sc2cc(C)c(C)cc2N1CC)C(C)=O | 3.13
81 | CCN1/C(=C\c2ccc3cc(C)ccc3[n+]2CC)Sc2cc(C)c(C)cc21 | 1.02
82 | CCN(CC)CCn1c2ccccc2c2nc3ccccc3nc21 | 17.3
83 | O=c1ccc2[n+]([O-])c3ccc(O)cc3oc-2c1 | 10.9
84 | N#CC(C#N)=C1C=C2C=C(N3CCOCC3)CCC2CC1 (stereo unspecified) | 0.14
85 | Cn1c(=O)c(NC2CCCCC2)c2c3c(cccc31)C(=O)c1ccccc1-2 | 1.05
86 | Cc1cc2[nH]c3c(c[n+](C)c4ccccc34)c2cc1C | 13.4
87 | COc1cccc2c1C(=O)C=C(C)C2=O | 6.68
88 | COC(=O)c1cc2c(=O)c3ccccc3oc2nc1/C=C/N(C)C | 0.544
89 | CNc1c2cccc(C)c2nc2c(C(=O)NCCN(C)C)cccc12 | 10.5
90 | COc1cccc(Nc2nc(-c3sc(NC(=O)c4ccccc4)nc3C)cs2)c1 | 4.43
91 | CO[C@@]12[C@@H]3N[C@@H]3CN1C1=C(C(=O)C(N)=C(C)C1=O)[C@@H]2COC(N)=O | 19.4
92 | COc1cccc(-c2ccc(C3[C@@H]4CN(S(=O)(=O)c5cccc(OC)c5)C[C@H]3N4)cc2)c1 (stereo partly specified) | 16
93 | N#Cc1ccc(-c2ccc3c(c2)[C@H]2[C@H](CCN2S(=O)(=O)c2ccccc2F)[C@@H](CO)N3)cc1 | 21.3
94 | CN1/C(=C\C=C2/SC(=S)NC2=O)C(C)(C)c2ccccc21 | 2.6
95 | c1ccc2c(NCCCN3CCOCC3)c3ccccc3nc2c1 | 16.6
96 | COc1ccc2noc3c2c1C(=O)c1ccccc1-3 | 5.51
97 | Nc1ccc(-c2c3ccc(=O)cc-3oc3cc(O)ccc23)cc1C(=O)O | 1.61
98 | COc1c(C=O)c2c(c(OC)c1OC)-c1ccc(OC)c(=O)cc1C(NC(C)=O)CC2 (stereo unspecified) | 20.9
99 | C[C@@H]1CN([C@@H](C)CO)C(=O)Cc2cc(N(C)C)ccc2O[C@@H]1CN(C)Cc1ccc(C(=O)Nc2ccccc2N)cc1 | 19.7
100 | C[C@@H]1CCCCO[C@H](CN(C)Cc2ccc(Cl)c(Cl)c2)[C@@H](C)CN([C@@H](C)CO)C(=O)c2cc(NS(=O)(=O)c3ccc(Cl)cc3)ccc2O1 | 23.5
101 | O=C(Nc1cccc(F)c1)N1CCCCN2[C@@H](CO)[C@H](c3ccc(C#Cc4ccccc4)cc3)[C@@H]2C1 | 19.7

Source: PubChem BioAssay AID743402 (Broad Institute, 2014)
